Data as given in ChEMBL document CHEMBL4800722, “Data for DCP probe BI 605906” (2021).

Columns and labels:
[1] = biological target: Type-1 angiotensin II receptor (Homo sapiens) (UniProt P30556); assay: AT1 Eurofins SafetyScreen44 (BI)
[2] = biological target: CDK2/Cyclin A1 (Homo sapiens) (UniProt P24941+P78396); assay: CDK2/CYCLIN A1 Invitrogen Lab (UK) kinase screen (BI); format: protein-complex assay; conditions: Compound concentration 1.0 uM
[3] = biological target: Casein kinase I isoform epsilon (Homo sapiens) (UniProt P49674); assay: CSNK1E Invitrogen Lab (UK) kinase screen (BI); conditions: Compound concentration 1.0 uM
[4] = biological target: Ribosomal protein S6 kinase alpha-5 (Homo sapiens) (UniProt O75582); assay: RPS6KA5 Invitrogen Lab (UK) kinase screen (BI); conditions: Compound concentration 1.0 uM
Sequence of Ribosomal protein S6 kinase alpha-5 (Homo sapiens) (O75582 whole entry, looked up): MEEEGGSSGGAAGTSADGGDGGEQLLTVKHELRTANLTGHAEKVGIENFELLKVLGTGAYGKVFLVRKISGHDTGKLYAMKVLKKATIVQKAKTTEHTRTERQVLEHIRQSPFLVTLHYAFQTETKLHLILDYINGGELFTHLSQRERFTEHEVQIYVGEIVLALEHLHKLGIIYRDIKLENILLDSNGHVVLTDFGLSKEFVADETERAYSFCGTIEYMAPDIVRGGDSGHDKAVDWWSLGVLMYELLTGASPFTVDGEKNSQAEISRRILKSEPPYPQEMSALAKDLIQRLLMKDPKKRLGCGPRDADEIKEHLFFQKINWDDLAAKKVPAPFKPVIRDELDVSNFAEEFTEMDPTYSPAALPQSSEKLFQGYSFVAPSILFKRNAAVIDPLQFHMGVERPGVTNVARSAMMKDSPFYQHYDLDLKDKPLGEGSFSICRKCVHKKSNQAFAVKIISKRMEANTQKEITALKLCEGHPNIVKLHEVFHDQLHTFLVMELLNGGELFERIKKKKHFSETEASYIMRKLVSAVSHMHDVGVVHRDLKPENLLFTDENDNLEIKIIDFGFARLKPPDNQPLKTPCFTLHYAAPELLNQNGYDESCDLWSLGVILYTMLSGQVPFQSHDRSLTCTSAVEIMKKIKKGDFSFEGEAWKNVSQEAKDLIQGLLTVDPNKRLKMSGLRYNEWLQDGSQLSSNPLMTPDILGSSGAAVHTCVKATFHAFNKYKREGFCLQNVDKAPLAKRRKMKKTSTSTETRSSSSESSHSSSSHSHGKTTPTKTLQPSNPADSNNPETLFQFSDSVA

[5] = biological target: Serine/threonine-protein kinase 33 (Homo sapiens) (UniProt Q9BYT3); assay: STK33 Invitrogen Lab (UK) kinase screen (BI); conditions: Compound concentration 1.0 uM
[6] = biological target: Serine/threonine-protein kinase WNK2 (Homo sapiens) (UniProt Q9Y3S1); assay: WNK2 Invitrogen Lab (UK) kinase screen (BI); conditions: Compound concentration 1.0 uM
[7] = biological target: Aurora kinase B (Homo sapiens) (UniProt Q96GD4); assay: AURORA B DUNDEE kinase screen (BI); conditions: Compound concentration 10.0 uM
Sequence of Aurora kinase B (Homo sapiens) (Q96GD4 whole entry): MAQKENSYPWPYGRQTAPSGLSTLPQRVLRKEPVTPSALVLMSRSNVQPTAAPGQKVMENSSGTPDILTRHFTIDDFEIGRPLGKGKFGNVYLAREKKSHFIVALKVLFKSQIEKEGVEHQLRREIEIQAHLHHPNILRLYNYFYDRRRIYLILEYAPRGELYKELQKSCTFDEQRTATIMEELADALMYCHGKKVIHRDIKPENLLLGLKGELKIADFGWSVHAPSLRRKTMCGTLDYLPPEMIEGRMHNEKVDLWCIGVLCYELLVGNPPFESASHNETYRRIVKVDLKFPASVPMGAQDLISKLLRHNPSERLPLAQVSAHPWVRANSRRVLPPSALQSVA

[8] = biological target: Natriuretic peptides A (Cavia porcellus) (UniProt P27596); conditions: Compound concentration 100.0 uM
Sequence of Natriuretic peptides A (Cavia porcellus) (P27596 whole entry): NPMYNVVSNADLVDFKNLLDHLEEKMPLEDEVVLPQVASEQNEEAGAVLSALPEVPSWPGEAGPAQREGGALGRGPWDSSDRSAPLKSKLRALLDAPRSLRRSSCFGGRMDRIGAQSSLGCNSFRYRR

[9] = biological target: Neutrophil elastase (Homo sapiens) (UniProt P08246); conditions: Compound concentration 10.0 uM
[10] = biological target: Histamine H1 receptor (Homo sapiens) (UniProt P35367); conditions: Compound concentration 10.0 uM
[11] = biological target: CDK4/Cyclin D3 (Homo sapiens) (UniProt P11802+P30281); conditions: Compound concentration 1.0 uM
[12] = biological target: T1, Cyclin-G-associated kinase (Homo sapiens) (UniProt O14976)
T1 sequence (whole entry): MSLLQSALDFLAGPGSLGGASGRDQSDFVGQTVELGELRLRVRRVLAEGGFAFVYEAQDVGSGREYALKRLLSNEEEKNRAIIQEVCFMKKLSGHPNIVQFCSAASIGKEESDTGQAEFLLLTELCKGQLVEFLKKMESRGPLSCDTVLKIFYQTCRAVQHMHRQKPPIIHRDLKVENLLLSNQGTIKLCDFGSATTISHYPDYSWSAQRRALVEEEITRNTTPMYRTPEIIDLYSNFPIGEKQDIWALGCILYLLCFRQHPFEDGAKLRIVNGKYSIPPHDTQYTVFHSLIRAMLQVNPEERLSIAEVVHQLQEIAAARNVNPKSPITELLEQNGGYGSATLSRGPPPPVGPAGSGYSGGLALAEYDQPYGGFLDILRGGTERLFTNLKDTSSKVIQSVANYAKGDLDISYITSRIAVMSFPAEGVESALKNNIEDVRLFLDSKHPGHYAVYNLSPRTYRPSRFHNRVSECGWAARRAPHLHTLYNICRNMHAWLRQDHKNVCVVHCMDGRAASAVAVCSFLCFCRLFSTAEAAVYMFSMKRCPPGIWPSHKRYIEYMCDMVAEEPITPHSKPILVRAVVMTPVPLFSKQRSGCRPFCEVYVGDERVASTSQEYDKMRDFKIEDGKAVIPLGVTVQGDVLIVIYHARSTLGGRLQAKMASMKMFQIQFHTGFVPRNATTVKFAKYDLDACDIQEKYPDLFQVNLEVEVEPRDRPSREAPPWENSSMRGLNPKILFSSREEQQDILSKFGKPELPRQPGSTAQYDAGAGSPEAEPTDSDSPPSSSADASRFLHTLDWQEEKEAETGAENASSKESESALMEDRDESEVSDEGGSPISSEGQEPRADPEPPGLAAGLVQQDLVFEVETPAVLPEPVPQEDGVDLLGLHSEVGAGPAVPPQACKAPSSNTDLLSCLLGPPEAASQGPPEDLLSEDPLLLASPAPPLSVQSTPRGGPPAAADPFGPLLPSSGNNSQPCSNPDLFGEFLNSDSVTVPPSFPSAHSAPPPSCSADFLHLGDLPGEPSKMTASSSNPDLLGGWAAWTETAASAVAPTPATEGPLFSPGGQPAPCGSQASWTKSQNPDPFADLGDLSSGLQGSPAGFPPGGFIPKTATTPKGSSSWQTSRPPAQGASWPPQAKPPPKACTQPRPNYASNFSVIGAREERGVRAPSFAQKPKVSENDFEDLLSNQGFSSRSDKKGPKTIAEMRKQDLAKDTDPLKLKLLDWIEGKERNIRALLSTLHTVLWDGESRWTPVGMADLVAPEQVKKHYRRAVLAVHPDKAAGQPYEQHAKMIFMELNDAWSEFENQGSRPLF

[13] = biological target: Myosin-IIIa (Homo sapiens) (UniProt Q8NEV4); conditions: Compound concentration 1.0 uM
[14] = biological target: TGF-beta receptor type-2 (Homo sapiens) (UniProt P37173); conditions: Compound concentration 1.0 uM
Sequence of TGF-beta receptor type-2 (Homo sapiens) (P37173 whole entry): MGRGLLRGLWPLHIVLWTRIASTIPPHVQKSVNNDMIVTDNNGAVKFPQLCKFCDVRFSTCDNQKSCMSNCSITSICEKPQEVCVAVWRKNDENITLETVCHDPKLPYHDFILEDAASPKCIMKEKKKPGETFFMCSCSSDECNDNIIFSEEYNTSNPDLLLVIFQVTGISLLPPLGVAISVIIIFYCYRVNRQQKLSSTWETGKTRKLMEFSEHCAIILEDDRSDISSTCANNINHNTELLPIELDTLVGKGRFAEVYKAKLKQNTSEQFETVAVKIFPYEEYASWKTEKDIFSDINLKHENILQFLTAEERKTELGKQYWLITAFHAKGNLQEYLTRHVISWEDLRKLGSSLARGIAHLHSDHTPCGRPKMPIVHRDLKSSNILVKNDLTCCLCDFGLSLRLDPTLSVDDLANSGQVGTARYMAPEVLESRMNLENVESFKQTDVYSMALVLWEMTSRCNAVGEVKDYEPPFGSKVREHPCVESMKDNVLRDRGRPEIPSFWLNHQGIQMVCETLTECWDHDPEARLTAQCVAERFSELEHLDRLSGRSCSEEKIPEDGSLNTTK

[15] = biological target: Serine/threonine-protein kinase WNK1 (Homo sapiens) (UniProt Q9H4A3); conditions: Compound concentration 1.0 uM
[16] = biological target: Tyrosine-protein kinase ABL1 (Homo sapiens) (UniProt P00519)
Sequence of Tyrosine-protein kinase ABL1 (Homo sapiens) (P00519 whole entry): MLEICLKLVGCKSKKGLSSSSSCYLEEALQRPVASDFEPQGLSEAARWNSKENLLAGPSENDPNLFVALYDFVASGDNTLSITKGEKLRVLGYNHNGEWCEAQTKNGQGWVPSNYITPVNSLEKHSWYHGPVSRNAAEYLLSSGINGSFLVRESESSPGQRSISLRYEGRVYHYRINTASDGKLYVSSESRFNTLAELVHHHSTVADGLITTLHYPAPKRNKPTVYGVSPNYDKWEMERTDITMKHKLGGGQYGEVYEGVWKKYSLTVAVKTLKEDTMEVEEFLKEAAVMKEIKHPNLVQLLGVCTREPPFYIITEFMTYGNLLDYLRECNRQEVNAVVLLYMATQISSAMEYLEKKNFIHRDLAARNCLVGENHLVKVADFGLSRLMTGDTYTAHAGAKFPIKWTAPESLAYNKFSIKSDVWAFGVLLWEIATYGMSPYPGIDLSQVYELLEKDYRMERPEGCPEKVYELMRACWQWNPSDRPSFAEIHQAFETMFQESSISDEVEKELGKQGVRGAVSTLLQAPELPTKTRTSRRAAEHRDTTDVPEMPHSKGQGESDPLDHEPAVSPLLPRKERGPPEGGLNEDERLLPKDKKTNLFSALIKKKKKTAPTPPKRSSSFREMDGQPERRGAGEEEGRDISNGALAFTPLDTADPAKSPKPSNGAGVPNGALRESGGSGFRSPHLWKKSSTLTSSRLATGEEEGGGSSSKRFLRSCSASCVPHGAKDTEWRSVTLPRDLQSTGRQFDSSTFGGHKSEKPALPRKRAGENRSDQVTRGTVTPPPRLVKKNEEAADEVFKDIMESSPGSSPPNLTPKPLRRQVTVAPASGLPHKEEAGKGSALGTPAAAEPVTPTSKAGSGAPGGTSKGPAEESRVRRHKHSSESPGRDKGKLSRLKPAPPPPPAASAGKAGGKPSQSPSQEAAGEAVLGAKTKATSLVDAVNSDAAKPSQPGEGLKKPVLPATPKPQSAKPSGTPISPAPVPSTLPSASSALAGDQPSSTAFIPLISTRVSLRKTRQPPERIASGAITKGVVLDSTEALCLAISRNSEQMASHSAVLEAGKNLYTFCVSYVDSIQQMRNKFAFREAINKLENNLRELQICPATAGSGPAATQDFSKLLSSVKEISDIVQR

[17] = biological target: Tyrosine-protein kinase BTK (Homo sapiens) (UniProt Q06187)
Sequence of Tyrosine-protein kinase BTK (Homo sapiens) (Q06187 whole entry, canonical isoform): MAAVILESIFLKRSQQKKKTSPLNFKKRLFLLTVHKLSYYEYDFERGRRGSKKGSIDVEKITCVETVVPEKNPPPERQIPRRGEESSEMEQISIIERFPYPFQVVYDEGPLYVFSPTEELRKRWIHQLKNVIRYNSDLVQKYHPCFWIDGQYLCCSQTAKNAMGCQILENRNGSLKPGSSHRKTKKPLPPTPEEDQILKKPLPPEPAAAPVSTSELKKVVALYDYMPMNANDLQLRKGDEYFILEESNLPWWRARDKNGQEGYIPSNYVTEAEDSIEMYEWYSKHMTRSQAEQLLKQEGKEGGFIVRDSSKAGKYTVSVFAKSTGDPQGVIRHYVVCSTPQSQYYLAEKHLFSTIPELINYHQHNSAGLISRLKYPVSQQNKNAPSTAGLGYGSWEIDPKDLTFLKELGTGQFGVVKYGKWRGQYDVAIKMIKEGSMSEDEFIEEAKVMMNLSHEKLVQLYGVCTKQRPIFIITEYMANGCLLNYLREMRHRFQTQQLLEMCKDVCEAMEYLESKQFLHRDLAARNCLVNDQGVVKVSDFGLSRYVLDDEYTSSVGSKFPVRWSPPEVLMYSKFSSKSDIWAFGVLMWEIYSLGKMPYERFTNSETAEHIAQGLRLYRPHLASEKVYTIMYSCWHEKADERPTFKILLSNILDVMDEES

[18] = biological target: Casein kinase I isoform alpha (Homo sapiens) (UniProt P48729); conditions: Compound concentration 1.0 uM
[19] = biological target: Casein kinase I isoform gamma-3 (Homo sapiens) (UniProt Q9Y6M4); conditions: Compound concentration 1.0 uM
[20] = biological target: Tyrosine-protein kinase Fer (Homo sapiens) (UniProt P16591); conditions: Compound concentration 1.0 uM
[21] = biological target: Homeodomain-interacting protein kinase 3 (Homo sapiens) (UniProt Q9H422); conditions: Compound concentration 1.0 uM
[22] = biological target: Serine/threonine-protein kinase PAK 4 (Homo sapiens) (UniProt O96013)
Sequence of Serine/threonine-protein kinase PAK 4 (Homo sapiens) (O96013 whole entry, looked up): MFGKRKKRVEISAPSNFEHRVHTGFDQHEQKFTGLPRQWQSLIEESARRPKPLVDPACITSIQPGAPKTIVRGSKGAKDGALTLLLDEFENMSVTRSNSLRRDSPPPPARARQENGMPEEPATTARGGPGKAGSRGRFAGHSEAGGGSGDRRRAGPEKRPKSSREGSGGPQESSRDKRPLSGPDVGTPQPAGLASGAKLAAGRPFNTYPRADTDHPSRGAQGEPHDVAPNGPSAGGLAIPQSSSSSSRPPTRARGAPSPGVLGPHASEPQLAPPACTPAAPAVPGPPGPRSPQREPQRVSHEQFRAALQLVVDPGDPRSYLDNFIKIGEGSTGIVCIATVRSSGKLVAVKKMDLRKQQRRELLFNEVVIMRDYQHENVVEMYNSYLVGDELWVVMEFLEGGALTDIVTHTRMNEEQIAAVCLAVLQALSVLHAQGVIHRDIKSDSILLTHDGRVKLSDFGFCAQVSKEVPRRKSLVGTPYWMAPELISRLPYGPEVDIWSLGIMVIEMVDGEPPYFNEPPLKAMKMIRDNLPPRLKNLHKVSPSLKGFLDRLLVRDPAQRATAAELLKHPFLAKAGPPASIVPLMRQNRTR

[23] = biological target: Serine/threonine-protein kinase pim-1 (Homo sapiens) (UniProt P11309)
Sequence of Serine/threonine-protein kinase pim-1 (Homo sapiens) (P11309 whole entry, looked up): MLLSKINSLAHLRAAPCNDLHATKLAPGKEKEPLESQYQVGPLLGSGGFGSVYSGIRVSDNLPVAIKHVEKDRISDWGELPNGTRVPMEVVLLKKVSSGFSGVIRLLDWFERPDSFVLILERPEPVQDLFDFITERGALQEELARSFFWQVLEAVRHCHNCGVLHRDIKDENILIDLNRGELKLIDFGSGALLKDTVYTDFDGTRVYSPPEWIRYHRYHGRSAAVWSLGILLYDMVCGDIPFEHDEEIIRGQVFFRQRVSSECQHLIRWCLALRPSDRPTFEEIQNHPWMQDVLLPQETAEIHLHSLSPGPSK

[24] = biological target: Protein-tyrosine kinase 6 (Homo sapiens) (UniProt Q13882); conditions: Compound concentration 1.0 uM
[25] = biological target: Proto-oncogene tyrosine-protein kinase ROS (Homo sapiens) (UniProt P08922); conditions: Compound concentration 1.0 uM
[26] = biological target: 3-phosphoinositide-dependent protein kinase 1 (Homo sapiens) (UniProt O15530); conditions: Compound concentration 10.0 uM

Sequence of Type-1 angiotensin II receptor (Homo sapiens) (P30556 whole entry): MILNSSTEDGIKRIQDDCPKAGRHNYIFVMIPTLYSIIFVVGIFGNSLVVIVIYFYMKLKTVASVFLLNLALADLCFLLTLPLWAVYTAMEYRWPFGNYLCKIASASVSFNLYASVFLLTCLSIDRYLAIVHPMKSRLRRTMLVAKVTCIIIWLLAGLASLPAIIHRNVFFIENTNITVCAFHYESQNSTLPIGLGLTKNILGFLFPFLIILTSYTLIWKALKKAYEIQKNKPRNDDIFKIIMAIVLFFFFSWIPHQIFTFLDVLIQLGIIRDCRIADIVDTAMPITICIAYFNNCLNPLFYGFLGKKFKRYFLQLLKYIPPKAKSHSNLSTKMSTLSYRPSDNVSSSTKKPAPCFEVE

## CCC(F)(F)c1cc(N2CCC(S(C)(=O)=O)CC2)nc2sc(C(N)=O)c(N)c12 [BI-605906]
[1]; Compound concentration 10.0 uM
  residual activity: 104%
[1]; Compound concentration 100.0 uM
  residual activity: 72%
[2]
  residual activity: 80%
[3]
  residual activity: 75%
[4]
  residual activity: 102%
[5]
  residual activity: 88%
[6]
  residual activity: 86%
[7]
  residual activity: 60.9%
[8]
  residual activity: 100%
[9]
  residual activity: 98%
[10]
  residual activity: 95%
[11]
  residual activity: 97%
[12]; Compound concentration 0.001 uM
  residual activity: 99%
[12]; Compound concentration 1.0 uM
  residual activity: 7%
[12]; Compound concentration 20.0 uM
  residual activity: 6%
[13]
  residual activity: 92%
[14]
  residual activity: 87%
[15]
  residual activity: 99%
[16]; Compound concentration 1.0 uM
  residual activity: 95%
[16]; Compound concentration 10.0 uM
  residual activity: 77%
[17]; Compound concentration 1.0 uM
  residual activity: 85%
[17]; Compound concentration 10.0 uM
  residual activity: 96%
[18]
  residual activity: 98%
[19]
  residual activity: 99%
[20]
  residual activity: 95%
[21]
  residual activity: 95%
[22]; Compound concentration 1.0 uM
  residual activity: 95%
[22]; Compound concentration 10.0 uM
  residual activity: 80%
[23]; Compound concentration 1.0 uM
  residual activity: 90%
[23]; Compound concentration 10.0 uM
  residual activity: 99%
[24]
  residual activity: 98%
[25]
  residual activity: 94%
[26]
  residual activity: 89.1%
